Each compound was assayed on mice (assay: phenyl-p-quinone writhing assay in mice (analgesia)). Details: Mus musculus, sc, read-out: ED50 (subcutaneous dose effecting an approximately 50% inhibition of writhing).
Type: in vivo
Description: The 3-(4-piperidyl)-1,2-benzisoxazoles of the present invention are useful as analgetics due to their ability to alleviate pain in mammals. […] Exptl. Biol Med., 95 729 (1957)]. Thus, for instance, the subcutaneous dose effecting an approximately 50% inhibition of writhing (ED50) in mice produced in this assay is as follows: […]

| Compound | ED50 [mg/kg] |
| --- | --- |
| CC(C)=CCN1CCC2(C)c3cc(O)ccc3CC1C2C (centres unmarked) [pentazocine, reference compound] | 1.3 |
| CCC(=O)O[C@](Cc1ccccc1)(c1ccccc1)[C@H](C)CN(C)C [propoxyphene, reference compound] | 3.9 |
| Cl.Fc1ccc2c(C3CCNCC3)noc2c1 [3-(4-Piperidyl)-6-fluoro-1,2-benzisoxazole hydrochloride] | 1.79 |
| Cl.c1ccc2c(C3CCNCC3)noc2c1 [3-(4-Piperidyl)-1,2-benzisoxazole hydrochloride] | 0.517 |
| CN1CCC(c2noc3ccccc23)CC1.Cl [3-(1-Methyl-4-piperidyl)-1,2-benzisoxazole hydrochloride] | 0.415 |
| Cc1ccc2onc(C3CCN(C)CC3)c2c1.O=C(O)/C=C/C(=O)O [3-(1-Methyl-4-piperidyl)-5-methyl-1,2-benzisoxazole fumarate] | 0.566 |
| Cl.Clc1ccc2c(C3CCNCC3)noc2c1 [3-(4-Piperidyl)-6-chloro-1,2-benzisoxazole hydrochloride] | 5.6 |

Same assay, conditions: Mus musculus, sc; mice, subcutaneous, phenyl-p-quinone writhing; read-out: ED50 (subcutaneous dose effecting an approximately 50% inhibition of writhing)

| Compound | ED50 [mg/kg] |
| --- | --- |
| C=CCN1CCC(c2noc3ccccc23)CC1.Cl [3-(1-Allyl-4-piperidyl)-1,2-benzisoxazole hydrochloride] | 1.06 |
| Cl.c1ccc(CCN2CCC(c3noc4ccccc34)CC2)cc1 [3-[1-(β-Phenylethyl)-4-piperidyl]-1,2-benzisoxazole hydrochloride] | 0.386 |
| CN(C)CCCN1CCC(c2noc3ccccc23)CC1.O=C(O)/C=C/C(=O)O.O=C(O)/C=C/C(=O)O [3-[1-(3-Dimethylaminopropyl)-4-piperidyl]-1,2-benzisoxazole difumarate] | 7.4 |
| C=CCN1CCC(c2noc3cc(F)ccc23)CC1.Cl [3-(1-Allyl-4-piperidyl)-6-fluoro-1,2-benzisoxazole hydrochloride] | 0.455 |
